# Assay results reported in patent EP4129324A1, “COMPOSITIONS COMPRISING AT LEAST AN AMYLIN RECEPTOR AGONIST AND A GLP-1 RECEPTOR AGONIST” (Adocia, priority 2021, dated 2023).
# Entries after “also recorded” stand apart in the source; their conditions may differ.
# System: gastro-intestinal transit (gastric emptying) in the mouse
# Assay: Gastric emptying (stomach content weight) after charcoal suspension in fasted mice, subcutaneous administration
# Format: in vivo
# Conditions: male Swiss mice, subcutaneous injection of a composition comprising pramlintide alone, versus vehicle
# Method: The aim of this study was to evaluate the effects of pramlintide (compositions C7-1 and C7-2) and co-administration of pramlintide (compositions C7-1 and C7-2) and exenatide (C7-3 and C7-4) on gastro-intestinal transit (gastric emptying) in the mouse.
# Co-administration means that the composition of pramlintide and the composition of exenatide were administered separately.
# Studies were conducted on naive male Swiss mice (Janvier Lab) as no gender specific effect were expected. Body weight range of 25-32 g were included in the analysis.
# Mice were approximately fasted for 18 hours (~T0-18 h). The gastric emptying (i.e. stomach content) was measured via the administration of a suspension of charcoal at T0 (activated charcoal (0.4 ml/mouse, […]; Sigma Reference number C9157), suspended 10% with 2.5% arabic gum in distilled water). […] Afterwards, the stomach was opened, the contents washed out and the weight recorded again (empty stomach weight).
# The results are expressed as the variation of gastric content with the administration compositions comprising pramlintide compared with the gastric content with administration the vehicle (weight of gastric content with pramlintide / weight of gastric content with vehicle). […]
substance,measurement,value
Lys-Cys-Asn-Thr-Ala-Thr-Cys-Ala-Thr-Gln-Arg-Leu-Ala-Asn-Phe-Leu-Val-His-Ser-Ser-Asn-Asn-Phe-Gly-Pro-lle-Leu-Pro-Pro-Thr-Asn-Val-Gly-Ser- Asn-Thr-Tyr [pramlintide],"stomach (gastric) content weight, i.e. gastric emptying, result in words",increases the stomach content weight; also recorded: increases the gastric content weight
